These results are taken from patent US8093288B2, “Genipin derivatives and uses thereof” (Beth Israel Deaconess Medical Center, priority 2003, dated 2012).

The test system of assay [1] is islets from ob/ob mice lacking UCP2. In words: Glucose-stimulated insulin secretion in islets from ob/ob mice lacking UCP2. The following applies: 5 μM genipin, FIG. 12C. It is filed as cell-based. The protocol:
(§1) Pancreatic islets were isolated from WT (FIG. 12A) or UCP2 KO mice (FIG. 12B) and subjected to chronic incubations at low (5.5 mM) and high glucose (25 mM). In a separate experiment, islets were isolated from ob/ob mice (FIG. 12C). Islets were incubated for a total of 72 hours and washed, and then insulin-secretion studies were performed using three different concentrations of glucose (5.5, 12.5, and 25 mM) with or without 5 μM genipin. Results are means±SEM of four independent experiments (FIGS. 12A and 12B) or eight to twenty repeats of one representative experiment (FIG. 12C). WT islets that were chronically incubated at low glucose released increasing amounts of insulin in response to increasing concentrations of glucose (FIG. 12A, left panel). Following chronic hyperglycemia, islets increased basal insulin release, but were completely unresponsive to glucose stimulation (FIG. 12A, middle panel). […] To assess the role of genipin in hyperglycemia-induced loss of glucose responsiveness, genipin was acutely added into islets during the insulin-release phase of the study. […] Insulin secretion in islets from ob/ob mice and ob/ob mice lacking UCP2 with or without genipin was also studied. It has been reported that in ob/ob islets, UCP2 expression levels are increased compared to WT islets. […]

Assay [2] concerns UCP2 KO mice. The experiment in a line: Serum insulin in vivo after genipin injection in UCP2 KO mice. The following applies: genipin 10 mg/kg injected, FIGS. 13A, 13B. The method, then: UCP2-deficient mice have increased serum insulin levels. Genipin inhibits UCP2 activity, and thus should stimulate insulin secretion acutely in vivo. In the present study, the effect of genipin on insulin secretion in vivo was assessed. WT and UCP2 KO mice were fed a chow diet (FIG. 13A), or placed on a high fat diet (HFD) (FIG. 13B) (#D12331, obtained from Research Diets Inc., New Brunswick, N.J.). The fat source was coconut oil and comprised 58% of the total calories. The mice remained on the HFD for 24 weeks. Both WT and KO mice were obese (50-60 g). ob/ob mice (FIG. 13C) were obtained from The Jackson Laboratory. After 6 hours (FIG. 13A) or 20 hours (FIGS. 13B and 13C) of fasting, genipin (10 mg/kg (FIGS. 13A and 13B), or 20 mg/kg (FIG. 13C)) was injected into the mice. Serum insulin levels were measured before and after administration of genipin as indicated.

The test system of assay [3] is ob/ob islets. The experiment in a line: Glucose-stimulated insulin secretion in islets from ob/ob mice. It is filed as cell-based. The note with it: 5 μM genipin acutely added, FIG. 12C. The protocol:
as §1

The target of assay [4] is T1, UCP2 (Mus musculus, UniProt P70406).
T1 construct: Wildtype and UCP2 knockout mice were used for isolation of kidney mitochondria; from tissue; host or cells: kidney mitochondria of wildtype mice
T1 sequence (P70406 1-309): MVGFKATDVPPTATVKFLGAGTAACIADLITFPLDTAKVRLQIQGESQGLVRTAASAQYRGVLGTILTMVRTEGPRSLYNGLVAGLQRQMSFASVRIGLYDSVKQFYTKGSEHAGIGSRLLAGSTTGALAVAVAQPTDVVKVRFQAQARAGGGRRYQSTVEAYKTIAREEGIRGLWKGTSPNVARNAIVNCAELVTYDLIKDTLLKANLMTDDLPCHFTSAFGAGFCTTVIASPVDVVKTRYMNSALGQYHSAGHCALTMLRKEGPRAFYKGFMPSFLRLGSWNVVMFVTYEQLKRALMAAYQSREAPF
In words: Proton leak titration in isolated kidney mitochondria of wildtype mice with superoxide-generating system. The note with it: 50 μM genipin with 50 mM xanthine and 0.2 mU/3.5 mL xanthine oxidase, FIG. 2. In kind it is biochemical.

The test system of assay [5] is kidney mitochondria of UCP2 knockout mice. In words: Proton leak titration in isolated kidney mitochondria of UCP2 knockout mice with superoxide-generating system. It is filed as biochemical. The note with it: 50 μM genipin with 50 mM xanthine and 0.2 mU/3.5 mL xanthine oxidase, FIG. 3. The protocol: FIG. 3 is a graph showing the effect of genipin on superoxide-activated, UCP2-dependent proton leak in isolated kidney mitochondria of UCP2 knockout mice. Proton leak titration was performed in the presence of a superoxide-generating system (xanthine plus xanthine oxidase) essentially as described (Echtay et al. 2002, Nature 415, 96-99). Graphs show the rate of proton leak as a function of its driving force, mitochondrial membrane potential. ♦, control; ▪, xanthine (50 mM) plus xanthine oxidase (0.2mU/3.5 ml). Δ, xanthine/xanthine oxidase plus 50 μM genipin. Mitochondria were incubated with genipin in the oxygen electrode for 5 minutes before xanthine oxidase was added (to initiate the generation of superoxide). Western-blot analysis confirmed that there was no UCP2 protein in mitochondria from UCP2 knockout mice. Data are means +/−S.E.M. of four independent experiments.
Wildtype and UCP2 knockout mice were used for isolation of kidney mitochondria. Fresh tissues were minced in ice-cold STE buffer (250 mM sucrose, 5 mM Tris, 2 mM EGTA, pH 7.4 at 4° C.), and disrupted in a Dounce homogenizer. Cell debris was removed by centrifugation of the homogenate at 500×g for 3 min. The supernatant was centrifuged at 10,000×g for 8 min., and the mitochondrial pellet was resuspended in ice-cold STE buffer. Mitochondria were subjected to another cycle of centrifugation at 750 and 10,000×g. […]

For `COC(=O)C1=CO[C@@H](O)[C@@H]2C(CO)=CC[C@H]12` [genipin], the “glucose sensing (glucose-stimulated insulin secretion)” value in assay [1] was “did not improve glucose sensing above the level seen in islets lacking UCP2 alone”; in assay [3] it was “restored glucose sensing”. The serum insulin levels result in assay [2] is given as “no effect on insulin levels”. Moreover, the figures for the “rate of proton leak as a function of mitochondrial membrane potential” value in assay [4] and in assay [5] were “proton leak occurred at nearly the same mitochondria membrane potential as in the control” and “proton leak occurred at approximately the same membrane potential as that observed for kidney mitochondria from UCP2 knockout mice exposed to the superoxide-generating system alone”, respectively.
